In patent US20240166652A1, “MODULATORS OF THE INTEGRATED STRESS PATHWAY” (Calico Life Sciences LLC, priority 2017, published 2024):

system: ATF4 luciferase reporter in HEK293T cells; assay: ATF4-Luc assay (ATF4 luciferase reporter, tunicamycin-treated HEK293T cells); assay type: cell-based, human; settings: Homo sapiens, HEK-293T; HEK293T cells carrying the ATF4 luciferase reporter, 1 μg/mL tunicamycin, 7 hours

Question: `O=C(COc1ccc(Cl)c(F)c1)NC12CCC(NC(=O)COc3ccc(Cl)c(F)c3)(CC1)C(N1CC(O)C1)C2` (stereo not drawn) [Compound 719, N,N′-[2-(3-hydroxyazetidin-1-yl)bicyclo[2.2.2]octane-1,4-diyl]bis[2-(4-chloro-3-fluorophenoxy)acetamide]] was tested. Which EC50 did it give?
Answer: 10 to 50 nM

Question: How did the EC50 turn out when `COc1ccc(OCC(=O)NC23CC(NC(=O)COc4ccc5c(c4)OC(F)(F)O5)(C2)C3)cn1` [Compound 271, 2-[(2,2-difluoro-2H-1,3-benzodioxol-5-yl)oxy]-N-(3-{2-[(6-methoxypyridin-3-yl)oxy]acetamido}bicyclo[1.1.1]pentan-1-yl)acetamide] was run?
Answer: 10 to 50 nM

Question: How did the EC50 turn out when `O=C(COc1ccc(F)c(F)c1)NC12CCC(NC(=O)COc3ccc(C(F)(F)F)c(F)c3)(CC1)[C@@H](O)C2` [Compound 833, 2-(3,4-difluorophenoxy)-N-[(3S)-4-{2-[3-fluoro-4-(trifluoromethyl)phenoxy]acetamido}-3-hydroxybicyclo[2.2.2]octan-1-yl]acetamide] was run?
Answer: < 10 nM

Question: With `COc1ccc(OC)c(CCC(=O)NC23CC(NC(=O)COc4ccc(Cl)c(F)c4)(C2)C3)c1` [Compound 455, N-{3-[2-(4-chloro-3-fluorophenoxy)acetamido]bicyclo[1.1.1]pentan-1-yl}-3-(2,5-dimethoxyphenyl)propanamide] as the compound, how does the EC50 read?
Answer: > 2000 nM

Question: For `O=C(COc1ccc(Cl)c(F)c1)NC12CC(NC(=O)COc3cnc(Cl)c(F)c3)(C1)C2` [Compound 227, 2-(4-chloro-3-fluorophenoxy)-N-(3-{2-[(6-chloro-5-fluoropyridin-3-yl)oxy]acetamido}bicyclo[1.1.1]pentan-1-yl)acetamide], which EC50 is on record?
Answer: < 10 nM

Question: How did the EC50 turn out when `COC(=O)c1cc(OCC(=O)NC23CC(NC(=O)COc4ccc(Cl)c(F)c4)(C2)C3)ccc1Cl` [Compound 223, methyl 2-chloro-5-[2-({3-[2-(4-chloro-3-fluorophenoxy)acetamido]-bicyclo[1.1.1]pentan-1-yl}amino)-2-oxoethoxy]benzoate] was run?
Answer: 500 to 2000 nM

Question: `COCc1ccccc1OCC(=O)NC12CCC(NC(=O)COc3ccc(Cl)c(F)c3)(CC1)[C@@H](O)C2` [Compound 776, 2-(4-chloro-3-fluorophenoxy)-N-[(2S)-2-hydroxy-4-{2-[2-(methoxymethyl)phenoxy]acetamido}bicyclo[2.2.2]octan-1-yl]acetamide] was tested. Which EC50 did it give?
Answer: > 2000 nM

Question: With `O=C(COc1ccc(S(F)(F)(F)(F)F)nc1)NC12CC(NC(=O)COc3ccc(Cl)c(F)c3)(C1)C2` [Compound 332, 2-(4-chloro-3-fluorophenoxy)-N-[3-(2-{[6-(pentafluoro-X 6-sulfanyl)pyridin-3-yl]oxy}acetamido)bicyclo[1.1.1]pentan-1-yl]acetamide] as the compound, how does the EC50 read?
Answer: 10 to 50 nM

Question: With `O=C(COc1cc(F)c2cn[nH]c2c1)NC12CCC(NC(=O)COc3cc(F)c4cn[nH]c4c3)(CC1)[C@@H](O)C2` [Compound 710, N,N′-[(2S)-2-hydroxybicyclo[2.2.2]octane-1,4-diyl]bis{2-[(4-fluoro-1H-indazol-6-yl)oxy]acetamide}] as the compound, how does the EC50 read?
Answer: < 10 nM

Question: With `O=C(COc1ccc(Cl)c(F)c1)NC12CC(NS(=O)(=O)Cc3ccccc3F)(C1)C2` [Compound 481, 2-(4-chloro-3-fluorophenoxy)-N-(3-{[(2-fluorophenyl)methanesulfonyl]amino}bicyclo[1.1.1]pentan-1-yl)acetamide] as the compound, how does the EC50 read?
Answer: > 2000 nM

Question: For `O=C(COc1ccc(Cl)c(F)c1)NC12CCC(NC(=O)COc3ccc(Cl)c(F)c3)(CC1)CC2` [Compound 100, N,N′-(bicyclo[2.2.2]octane-1,4-diyl)bis[2-(4-chloro-3-fluorophenoxy)acetamide]], which EC50 is on record?
Answer: < 10 nM

Question: With `O=C(COc1ccc2c(c1)OC(F)(F)O2)NC12CCC(NC(=O)COc3ccc4c(c3)OC(F)(F)O4)(CC1)C2` [Compound 531, N,N′-(bicyclo[2.2.1]heptane-1,4-diyl)bis{2-[(2,2-difluoro-2H-1,3-benzodioxol-5-yl)oxy]acetamide}] as the compound, how does the EC50 read?
Answer: 250 to 500 nM

Question: For `N#Cc1ccc(COCC(=O)NC23CC(NC(=O)COc4ccc(Cl)c(F)c4)(C2)C3)cn1` [Compound 283, 2-(4-chloro-3-fluorophenoxy)-N-(3-{2-[(6-cyanopyridin-3-yl)methoxy]acetamido}bicyclo[1.1.1]pentan-1-yl)acetamide], which EC50 is on record?
Answer: 500 to 2000 nM

Question: For `O=C(COc1ccc(Cl)c(F)c1)N[C@H]1C[C@H]2C[C@@H]1C[C@@H]2NC(=O)COc1ccc(Cl)c(F)c1` (single isomer, unassigned) [Compound 620], which EC50 is on record?
Answer: < 10 nM

Question: With `O=C(CCOCc1cccc(Cl)c1)NC12CC(NC(=O)COc3ccc(Cl)c(F)c3)(C1)C2` [Compound 163, N-{3-[2-(4-chloro-3-fluorophenoxy)acetamido]bicyclo[1.1.1]pentan-1-yl}-3-[(3-chlorophenyl)methoxy]propanamide] as the compound, how does the EC50 read?
Answer: 250 to 500 nM

Question: `O=C(COc1cc(F)c2cn[nH]c2c1)NC12CCC(NC(=O)COc3ccc(F)cc3)(CC1)[C@@H](O)C2` [Compound 721] was tested. Which EC50 did it give?
Answer: < 10 nM

Question: `O=C(COc1ccc(Cl)c(F)c1)NC12CC(NC(=O)Cc3noc4ccccc34)(C1)C2` [Compound 360, 2-(1,2-benzoxazol-3-yl)-N-{3-[2-(4-chloro-3-fluorophenoxy)acetamido]bicyclo[1.1.1]pentan-1-yl}acetamide] was tested. Which EC50 did it give?
Answer: > 2000 nM

Question: For `O=C(COc1ccc(Cl)c(Cl)c1)NC12CC(NCCOc3ccc(Cl)cc3F)(C1)C2` [Compound 123, N-(3-{[2-(4-chloro-2-fluorophenoxy)ethyl]amino}bicyclo[1.1.1]pentan-1-yl)-2-(3,4-dichlorophenoxy)acetamide], which EC50 is on record?
Answer: 10 to 50 nM

Question: `COc1ccc(OCC(=O)NC23CCC(NC(=O)COc4ccc(Cl)c(F)c4)(CC2)[C@@H](O)C3)nc1` [Compound 667, 2-(4-chloro-3-fluorophenoxy)-N-[(2S)-2-hydroxy-4-{2-[(5-methoxypyridin-2-yl)oxy]acetamido}bicyclo[2.2.2]octan-1-yl]acetamide] was tested. Which EC50 did it give?
Answer: > 2000 nM

Question: Which EC50 does the source give for `O=C(COc1ccc(Cl)c(F)c1)NC12CCC(NC(=O)COc3cc(F)c(Cl)cc3Br)(CC1)C(Br)C2=O` (stereo not drawn) [Compound 570, 2-(2-bromo-4-chloro-5-fluorophenoxy)-N-{2-bromo-4-[2-(4-chloro-3-fluorophenoxy)acetamido]-3-oxobicyclo[2.2.2]octan-1-yl}acetamide] here?
Answer: 50 to 250 nM

Question: Which EC50 does the source give for `Cc1cc(OCC(=O)NC23CC(NC(=O)COc4ccc(Cl)c(F)c4)(C2)C3)cnc1F` [Compound 244, 2-(4-chloro-3-fluorophenoxy)-N-(3-{2-[(6-fluoro-5-methylpyridin-3-yl)oxy]acetamido}bicyclo[1.1.1]pentan-1-yl)acetamide] here?
Answer: < 10 nM

Question: For `CCCC1CC2(NC(=O)COc3ccc(Cl)c(F)c3)CCC1(NC(=O)COc1ccc(Cl)c(F)c1)CC2` (stereo not drawn) [Compound 723, N,N′-(2-propylbicyclo[2.2.2]octane-1,4-diyl)bis[2-(4-chloro-3-fluorophenoxy)acetamide]], which EC50 is on record?
Answer: 10 to 50 nM

Question: With `O=C(COc1ccc(S(F)(F)(F)(F)F)cc1)NC12CC(NC(=O)COc3ccc(Cl)c(F)c3)(C1)C2` [Compound 219, 2-(4-chloro-3-fluorophenoxy)-N-(3-{2-[4-(pentafluoro-λ^6-sulfanyl)phenoxy]acetamido}bicyclo[1.1.1]pentan-1-yl)acetamide] as the compound, how does the EC50 read?
Answer: < 10 nM

Question: For `O=C(COc1ccc(Cl)cc1)NC12CC(NC(=O)COc3ccc(Cl)c(F)c3)(C1)C2` [Compound 368, 2-(4-chloro-3-fluorophenoxy)-N-{3-[2-(4-chlorophenoxy)acetamido]bicyclo[1.1.1]pentan-1-yl}acetamide], which EC50 is on record?
Answer: < 10 nM

Question: `O=C(COc1ccc(Cl)c(F)c1)NC12CC(NC(=O)COc3cnc4cc[nH]c4c3)(C1)C2` [Compound 254, 2-(4-chloro-3-fluorophenoxy)-N-(3-{2-[(1H-pyrrolo[3,2-b]pyridin-6-yl)oxy]acetamido}bicyclo[1.1.1]pentan-1-yl)acetamide] was tested. Which EC50 did it give?
Answer: 250 to 500 nM

Question: `COc1cc(OCC(=O)NC23CCC(NC(=O)COc4ccc(Cl)c(F)c4)(CC2)C[C@@H]3O)nc(SC)n1` [Compound 497, 2-(4-chloro-3-fluorophenoxy)-N-[(3S)-3-hydroxy-4-(2-{[6-methoxy-2-(methylsulfanyl)pyrimidin-4-yl]oxy}acetamido)bicyclo[2.2.2]octan-1-yl]acetamide] was tested. Which EC50 did it give?
Answer: 500 to 2000 nM

Question: How did the EC50 turn out when `O=C(COc1ccc(Cl)c(F)c1)NC12CC(NC(=O)COc3cnc(Cl)c(C(=O)O)c3)(C1)C2` [Compound 231, 2-chloro-5-[2-({3-[2-(4-chloro-3-fluorophenoxy)acetamido]-bicyclo[1.1.1]pentan-1-yl}amino)-2-oxoethoxy]pyridine-3-carboxylic Acid] was run?
Answer: > 2000 nM

Question: How did the EC50 turn out when `O=C(COc1ccc(Cl)c(F)c1)NC12CCC(NC(=O)COc3ccc(Cl)c(F)c3)(CC1)C(N1CC(F)(F)C1)C2` (stereo not drawn) [Compound 715, N,N′-[2-(3,3-difluoroazetidin-1-yl)bicyclo[2.2.2]octane-1,4-diyl]bis[2-(4-chloro-3-fluorophenoxy)acetamide]] was run?
Answer: 10 to 50 nM

Question: How did the EC50 turn out when `O=C(COc1ccc(Cl)c(F)c1)NC12CCCC(NC(=O)OCc3ccccc3)(C1)C2` [Compound 181, benzyl {5-[2-(4-chloro-3-fluorophenoxy)acetamido]bicyclo[3.1.1]heptan-1-yl}carbamate] was run?
Answer: > 2000 nM

Question: With `Cc1ccc(OCC(=O)NC23CC(NC(=O)COc4ccc(Cl)c(F)c4)(C2)C3)cc1C` [Compound 456, 2-(4-chloro-3-fluorophenoxy)-N-{3-[2-(3,4-dimethylphenoxy)acetamido]bicyclo[1.1.1]pentan-1-yl}acetamide] as the compound, how does the EC50 read?
Answer: < 10 nM

Question: Which EC50 does the source give for `COc1cc(OCC(=O)NC23CC(NC(=O)COc4ccc(Cl)c(F)c4)(C2)C3)cnc1F` [Compound 246, 2-(4-chloro-3-fluorophenoxy)-N-(3-{2-[(6-fluoro-5-methoxypyridin-3-yl)oxy]acetamido}bicyclo[1.1.1]pentan-1-yl)acetamide] here?
Answer: 10 to 50 nM

Question: How did the EC50 turn out when `CS(=O)(=O)c1cc(F)ccc1OCC(=O)NC12CCC(NC(=O)COc3ccc(Cl)c(F)c3)(CC1)[C@@H](O)C2` [Compound 751, 2-(4-chloro-3-fluorophenoxy)-N-[(2S)-4-{2-[4-fluoro-2-(methanesulfonyl)phenoxy]acetamido}-2-hydroxybicyclo[2.2.2]octan-1-yl]acetamide] was run?
Answer: > 2000 nM

Question: `CC(=O)N(CC(=O)NC12CC(NC(=O)COc3ccc(Cl)c(F)c3)(C1)C2)c1ccc(Cl)cc1` [Compound 205, M-acetyl-N-{3-[2-(4-chloro-3-fluorophenoxy)acetamido]bicyclo-[1.1.1]pentan-1-yl}-N^2-(4-chlorophenyl)glycinamide] was tested. Which EC50 did it give?
Answer: > 2000 nM
